Test results taken from ChEMBL document CHEMBL1127145, “Syntheses of novel 1-aminocyclopropane-1-carboxylic acid (ACC)-containing -lactams” (Bioorg Med Chem Lett, 1993).
The source made the active and inactive calls. The rule behind the calls is not given here.

Target: Beta-lactamase TEM (Escherichia coli) (UniProt P62593)
Assay: Inhibitory activity towards beta-lactamase enzyme at 50 mM concentration or higher; Weak inhibitor

Sequence of Beta-lactamase TEM (Escherichia coli) (P62593 whole entry): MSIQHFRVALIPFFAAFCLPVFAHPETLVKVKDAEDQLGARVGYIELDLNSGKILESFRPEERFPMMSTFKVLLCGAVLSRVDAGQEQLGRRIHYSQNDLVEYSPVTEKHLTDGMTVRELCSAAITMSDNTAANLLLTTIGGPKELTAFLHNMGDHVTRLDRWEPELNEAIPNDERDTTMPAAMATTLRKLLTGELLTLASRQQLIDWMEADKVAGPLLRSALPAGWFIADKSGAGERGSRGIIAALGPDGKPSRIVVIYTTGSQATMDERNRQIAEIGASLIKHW

Activity: inactive
SMILES: CC(=O)[C@@H]1[C@H](NC(=O)c2ccccc2)C(=O)N1C1(C(=O)O)CC1
